Patent publication US10780099B2, “Injectable neurosteroid formulations containing nanoparticles” (MARINUS PHARMACEUTICALS, INC., priority 2015, dated 2020)
Where two headings read alike, the source gives them in different places.

Tests used:
[1] = cited from earlier work
[2] = Solubility in water

## CC(=O)[C@H]1CC[C@H]2[C@@H]3CC[C@H]4C[C@H](O)CC[C@]4(C)[C@H]3CC[C@]12C [Allopregnanolone, 3α,5α-tetrahydroprogesterone]
[1]; human plasma
  half-life: about 45 minutes

## CC(=O)[C@H]1CC[C@H]2[C@@H]3CC[C@H]4C[C@](C)(O)CC[C@]4(C)[C@H]3CC[C@]12C [Ganaxolone, 3α-hydroxy, 3β-methyl-5α-pregnan-20-one]
[2]
  solubility: < 1 µg/mL
[1]; human plasma following oral administration
  half-life: approximately 20 hours
[1]; in vivo
  Tmax: short
